The target in assay [1] is Receptor-interacting serine/threonine-protein kinase 3 (Homo sapiens, UniProt Q9Y572).
Assay [2] deals with Mitogen-activated protein kinase 9 (Homo sapiens, UniProt P45984).
For assay [3], the target named is T1, Serine/threonine-protein kinase Nek9 (Homo sapiens, UniProt Q8TD19).
T1 sequence (Q8TD19 whole entry): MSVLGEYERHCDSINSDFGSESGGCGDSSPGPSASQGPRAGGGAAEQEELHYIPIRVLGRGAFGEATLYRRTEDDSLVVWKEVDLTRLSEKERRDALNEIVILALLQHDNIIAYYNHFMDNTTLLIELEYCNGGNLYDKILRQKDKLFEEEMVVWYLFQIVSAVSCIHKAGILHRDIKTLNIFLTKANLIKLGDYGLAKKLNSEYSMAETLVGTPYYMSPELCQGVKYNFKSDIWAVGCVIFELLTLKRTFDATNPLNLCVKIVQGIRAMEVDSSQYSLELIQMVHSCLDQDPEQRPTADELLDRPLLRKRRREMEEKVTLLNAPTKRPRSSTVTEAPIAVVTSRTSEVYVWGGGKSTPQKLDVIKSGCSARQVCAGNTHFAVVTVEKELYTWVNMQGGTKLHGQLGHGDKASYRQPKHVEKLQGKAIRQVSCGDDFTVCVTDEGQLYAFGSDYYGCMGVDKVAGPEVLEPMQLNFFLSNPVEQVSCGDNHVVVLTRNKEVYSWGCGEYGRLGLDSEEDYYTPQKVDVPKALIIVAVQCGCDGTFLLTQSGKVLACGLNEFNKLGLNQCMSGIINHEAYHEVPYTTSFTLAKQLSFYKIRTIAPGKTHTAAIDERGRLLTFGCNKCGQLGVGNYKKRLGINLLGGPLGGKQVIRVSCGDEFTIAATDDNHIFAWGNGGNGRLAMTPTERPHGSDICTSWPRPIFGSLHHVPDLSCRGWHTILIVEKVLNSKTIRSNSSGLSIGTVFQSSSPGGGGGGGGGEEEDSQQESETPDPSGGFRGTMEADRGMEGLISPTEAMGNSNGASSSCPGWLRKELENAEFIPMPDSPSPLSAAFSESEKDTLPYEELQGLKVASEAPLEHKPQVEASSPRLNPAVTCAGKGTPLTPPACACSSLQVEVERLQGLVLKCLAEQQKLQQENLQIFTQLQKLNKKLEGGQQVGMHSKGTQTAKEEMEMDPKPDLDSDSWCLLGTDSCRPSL

For assay [4], the target named is cAMP-dependent protein kinase catalytic subunit gamma (Homo sapiens, UniProt P22612).
cAMP-dependent protein kinase catalytic subunit gamma, sequence (P22612 whole entry): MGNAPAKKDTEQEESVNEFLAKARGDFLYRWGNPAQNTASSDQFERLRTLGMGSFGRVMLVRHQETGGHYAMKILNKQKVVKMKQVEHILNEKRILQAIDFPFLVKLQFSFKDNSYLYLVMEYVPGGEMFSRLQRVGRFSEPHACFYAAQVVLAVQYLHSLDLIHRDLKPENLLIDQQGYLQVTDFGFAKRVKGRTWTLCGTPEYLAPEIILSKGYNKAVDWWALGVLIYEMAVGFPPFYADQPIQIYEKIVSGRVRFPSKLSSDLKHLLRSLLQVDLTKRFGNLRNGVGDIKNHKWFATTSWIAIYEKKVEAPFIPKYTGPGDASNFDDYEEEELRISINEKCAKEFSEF
For assay [5], the target named is Serine/threonine-protein kinase B-raf (Homo sapiens, UniProt P15056).
Serine/threonine-protein kinase B-raf, sequence (P15056 whole entry): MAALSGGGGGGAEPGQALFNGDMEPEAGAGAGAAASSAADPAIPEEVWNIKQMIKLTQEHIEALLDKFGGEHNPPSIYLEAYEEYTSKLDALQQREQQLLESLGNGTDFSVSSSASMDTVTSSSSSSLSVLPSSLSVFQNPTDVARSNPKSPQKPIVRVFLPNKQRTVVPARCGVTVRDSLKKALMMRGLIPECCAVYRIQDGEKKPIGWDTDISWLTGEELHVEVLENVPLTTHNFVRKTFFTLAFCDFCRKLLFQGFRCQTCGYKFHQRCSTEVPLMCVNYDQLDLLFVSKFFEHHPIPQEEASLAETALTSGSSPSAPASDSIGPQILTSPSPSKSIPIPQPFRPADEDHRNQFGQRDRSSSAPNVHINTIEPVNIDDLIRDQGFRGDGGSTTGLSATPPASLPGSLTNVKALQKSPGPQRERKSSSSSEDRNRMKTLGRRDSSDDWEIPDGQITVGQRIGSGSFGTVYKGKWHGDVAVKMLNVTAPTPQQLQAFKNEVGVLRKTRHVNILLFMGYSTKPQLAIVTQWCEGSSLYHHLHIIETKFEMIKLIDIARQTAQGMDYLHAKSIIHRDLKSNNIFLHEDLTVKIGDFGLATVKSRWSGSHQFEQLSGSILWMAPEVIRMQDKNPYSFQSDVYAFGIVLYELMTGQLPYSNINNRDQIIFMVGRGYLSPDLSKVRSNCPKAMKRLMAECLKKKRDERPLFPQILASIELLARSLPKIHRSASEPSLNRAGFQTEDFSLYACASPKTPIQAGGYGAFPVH
The target of assay [6] is Serine/threonine-protein kinase MRCK alpha (Homo sapiens, UniProt Q5VT25).
Serine/threonine-protein kinase MRCK alpha, sequence (Q5VT25 whole entry): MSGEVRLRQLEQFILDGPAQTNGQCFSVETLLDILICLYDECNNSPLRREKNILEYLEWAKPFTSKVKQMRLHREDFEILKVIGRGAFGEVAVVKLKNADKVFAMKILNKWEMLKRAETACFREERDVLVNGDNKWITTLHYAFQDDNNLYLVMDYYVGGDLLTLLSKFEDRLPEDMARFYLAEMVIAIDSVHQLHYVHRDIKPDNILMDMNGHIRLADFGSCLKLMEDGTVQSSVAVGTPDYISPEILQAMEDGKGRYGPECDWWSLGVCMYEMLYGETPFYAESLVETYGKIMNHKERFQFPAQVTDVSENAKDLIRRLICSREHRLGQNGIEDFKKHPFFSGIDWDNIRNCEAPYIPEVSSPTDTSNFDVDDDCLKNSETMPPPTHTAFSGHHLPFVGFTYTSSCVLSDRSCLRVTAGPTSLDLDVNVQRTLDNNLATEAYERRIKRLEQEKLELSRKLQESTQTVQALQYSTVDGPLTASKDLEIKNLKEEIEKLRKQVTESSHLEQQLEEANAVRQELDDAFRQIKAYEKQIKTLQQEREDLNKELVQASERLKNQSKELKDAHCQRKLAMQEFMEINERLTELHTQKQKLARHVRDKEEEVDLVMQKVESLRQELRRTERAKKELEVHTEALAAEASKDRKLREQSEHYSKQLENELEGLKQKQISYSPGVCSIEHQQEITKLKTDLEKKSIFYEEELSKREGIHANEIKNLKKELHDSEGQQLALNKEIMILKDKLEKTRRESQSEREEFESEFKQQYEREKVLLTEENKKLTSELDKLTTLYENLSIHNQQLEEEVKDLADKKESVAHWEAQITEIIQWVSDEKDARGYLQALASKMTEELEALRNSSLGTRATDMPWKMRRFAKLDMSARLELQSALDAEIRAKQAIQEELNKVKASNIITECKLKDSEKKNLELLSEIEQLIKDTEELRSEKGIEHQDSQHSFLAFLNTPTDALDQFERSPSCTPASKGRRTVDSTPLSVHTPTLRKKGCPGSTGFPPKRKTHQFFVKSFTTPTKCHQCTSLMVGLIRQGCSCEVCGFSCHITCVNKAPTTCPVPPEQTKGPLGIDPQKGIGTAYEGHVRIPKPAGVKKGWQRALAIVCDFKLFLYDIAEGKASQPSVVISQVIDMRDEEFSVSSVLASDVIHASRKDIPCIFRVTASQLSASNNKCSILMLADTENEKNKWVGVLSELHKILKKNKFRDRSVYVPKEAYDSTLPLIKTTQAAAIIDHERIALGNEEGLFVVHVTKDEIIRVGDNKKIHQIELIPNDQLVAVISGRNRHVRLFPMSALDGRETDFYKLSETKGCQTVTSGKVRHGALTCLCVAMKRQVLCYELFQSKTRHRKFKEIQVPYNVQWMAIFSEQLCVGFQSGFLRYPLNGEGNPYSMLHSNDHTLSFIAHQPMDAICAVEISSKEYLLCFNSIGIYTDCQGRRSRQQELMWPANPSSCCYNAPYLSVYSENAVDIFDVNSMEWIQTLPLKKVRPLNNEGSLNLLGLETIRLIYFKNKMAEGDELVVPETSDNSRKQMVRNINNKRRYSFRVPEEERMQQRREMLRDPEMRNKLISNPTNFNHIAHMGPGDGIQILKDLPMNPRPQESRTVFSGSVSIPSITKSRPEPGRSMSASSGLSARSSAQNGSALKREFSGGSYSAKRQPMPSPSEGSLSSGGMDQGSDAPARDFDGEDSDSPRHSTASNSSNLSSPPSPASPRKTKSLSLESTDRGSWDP
The target in the next assay is T2, TGF-beta receptor type-1 (Homo sapiens, UniProt P36897).
T2 sequence (P36897 whole entry): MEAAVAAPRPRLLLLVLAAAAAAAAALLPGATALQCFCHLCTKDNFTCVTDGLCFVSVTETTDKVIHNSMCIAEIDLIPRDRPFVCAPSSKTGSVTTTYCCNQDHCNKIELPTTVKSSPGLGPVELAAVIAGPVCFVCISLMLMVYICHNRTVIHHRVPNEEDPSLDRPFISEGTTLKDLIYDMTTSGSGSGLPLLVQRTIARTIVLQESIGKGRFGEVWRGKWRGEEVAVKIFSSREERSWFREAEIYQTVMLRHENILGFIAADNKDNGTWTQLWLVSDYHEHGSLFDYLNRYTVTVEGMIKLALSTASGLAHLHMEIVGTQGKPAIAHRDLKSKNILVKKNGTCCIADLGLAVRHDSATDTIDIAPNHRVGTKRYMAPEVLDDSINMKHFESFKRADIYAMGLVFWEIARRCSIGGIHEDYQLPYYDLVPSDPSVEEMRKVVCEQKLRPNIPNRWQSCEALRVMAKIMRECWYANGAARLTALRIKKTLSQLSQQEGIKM

The target of assay [7] is Tyrosine-protein kinase Fer (Homo sapiens, UniProt P16591).
Assay [8] addresses Mitogen-activated protein kinase kinase kinase 20 (Homo sapiens, UniProt Q9NYL2).
The target in assay [9] is Serine/threonine-protein kinase 10 (Homo sapiens, UniProt O94804).
Serine/threonine-protein kinase 10, sequence (O94804 whole entry): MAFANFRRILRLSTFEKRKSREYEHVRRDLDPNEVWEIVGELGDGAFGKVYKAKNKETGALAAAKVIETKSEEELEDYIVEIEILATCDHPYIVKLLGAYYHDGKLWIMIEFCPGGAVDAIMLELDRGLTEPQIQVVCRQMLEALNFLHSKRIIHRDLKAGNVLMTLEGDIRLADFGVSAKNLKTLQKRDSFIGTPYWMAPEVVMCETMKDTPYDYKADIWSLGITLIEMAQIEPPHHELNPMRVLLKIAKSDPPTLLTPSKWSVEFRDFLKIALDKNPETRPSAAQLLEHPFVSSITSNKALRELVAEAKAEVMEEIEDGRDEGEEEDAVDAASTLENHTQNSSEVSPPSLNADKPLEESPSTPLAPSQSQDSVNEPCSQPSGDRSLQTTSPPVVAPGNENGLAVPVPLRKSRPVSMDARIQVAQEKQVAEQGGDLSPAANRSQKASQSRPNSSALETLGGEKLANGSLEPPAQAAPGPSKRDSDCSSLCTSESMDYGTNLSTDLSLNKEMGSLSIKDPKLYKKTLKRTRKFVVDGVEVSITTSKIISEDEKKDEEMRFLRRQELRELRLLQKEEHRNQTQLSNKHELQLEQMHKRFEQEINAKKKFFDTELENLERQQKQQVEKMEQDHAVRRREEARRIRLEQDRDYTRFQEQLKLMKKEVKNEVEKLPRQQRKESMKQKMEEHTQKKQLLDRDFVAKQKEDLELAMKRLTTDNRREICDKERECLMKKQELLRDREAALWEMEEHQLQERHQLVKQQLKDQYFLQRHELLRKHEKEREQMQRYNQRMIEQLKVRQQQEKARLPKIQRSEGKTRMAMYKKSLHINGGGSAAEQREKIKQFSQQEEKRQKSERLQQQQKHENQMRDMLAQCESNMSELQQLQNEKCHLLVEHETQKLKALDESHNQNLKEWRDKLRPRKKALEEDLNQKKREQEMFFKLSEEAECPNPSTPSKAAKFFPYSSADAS
The target of assay [10] is Protein kinase C beta type (Homo sapiens, UniProt P05771).
Protein kinase C beta type, sequence (P05771 whole entry): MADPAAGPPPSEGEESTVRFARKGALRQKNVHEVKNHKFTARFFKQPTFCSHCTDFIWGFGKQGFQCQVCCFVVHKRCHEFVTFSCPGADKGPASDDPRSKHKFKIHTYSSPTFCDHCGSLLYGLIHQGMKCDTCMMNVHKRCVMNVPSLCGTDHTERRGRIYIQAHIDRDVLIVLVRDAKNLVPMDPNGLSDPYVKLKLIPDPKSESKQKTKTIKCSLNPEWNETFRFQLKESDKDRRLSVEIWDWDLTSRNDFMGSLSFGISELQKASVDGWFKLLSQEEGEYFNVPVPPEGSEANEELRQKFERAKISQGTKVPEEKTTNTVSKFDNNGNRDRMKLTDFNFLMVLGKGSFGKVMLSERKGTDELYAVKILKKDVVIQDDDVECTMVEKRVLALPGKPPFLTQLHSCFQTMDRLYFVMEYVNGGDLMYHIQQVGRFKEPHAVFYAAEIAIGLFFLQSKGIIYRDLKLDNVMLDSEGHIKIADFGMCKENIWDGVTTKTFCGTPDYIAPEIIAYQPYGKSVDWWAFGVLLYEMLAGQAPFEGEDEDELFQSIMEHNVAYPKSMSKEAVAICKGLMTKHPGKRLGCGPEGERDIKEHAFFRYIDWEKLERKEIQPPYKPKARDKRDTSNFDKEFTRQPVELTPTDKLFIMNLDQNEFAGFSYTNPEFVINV
In assay [11] the target is T3, Peroxisomal acyl-coenzyme A oxidase 3 (Homo sapiens, UniProt O15254).
T3 sequence (O15254 whole entry): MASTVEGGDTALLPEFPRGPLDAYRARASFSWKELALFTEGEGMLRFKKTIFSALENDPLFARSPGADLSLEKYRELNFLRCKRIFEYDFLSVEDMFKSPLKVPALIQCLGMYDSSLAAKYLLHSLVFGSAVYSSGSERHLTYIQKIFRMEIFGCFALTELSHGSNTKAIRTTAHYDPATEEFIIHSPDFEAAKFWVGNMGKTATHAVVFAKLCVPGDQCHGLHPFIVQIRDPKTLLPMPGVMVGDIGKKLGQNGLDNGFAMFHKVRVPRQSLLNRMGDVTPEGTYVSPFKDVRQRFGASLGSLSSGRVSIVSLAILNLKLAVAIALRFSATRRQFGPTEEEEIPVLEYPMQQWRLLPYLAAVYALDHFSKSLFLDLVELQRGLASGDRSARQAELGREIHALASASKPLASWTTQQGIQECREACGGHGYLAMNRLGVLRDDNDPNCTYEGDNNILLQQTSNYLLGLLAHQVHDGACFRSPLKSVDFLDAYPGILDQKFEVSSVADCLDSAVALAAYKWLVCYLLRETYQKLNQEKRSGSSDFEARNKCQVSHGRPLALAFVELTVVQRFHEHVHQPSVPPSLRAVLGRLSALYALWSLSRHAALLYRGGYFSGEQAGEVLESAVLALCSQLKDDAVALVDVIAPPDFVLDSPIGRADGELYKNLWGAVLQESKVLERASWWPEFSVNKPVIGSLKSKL

The source made the active and inactive calls. Cut-off read from the data, not from the text of the source, for most assays here: actives have a measured Kd and inactives only a lower limit.
Note: in the data inactive means no Kd found up to 30 µM.

Mitogen-activated protein kinase 9, sequence (P45984 whole entry): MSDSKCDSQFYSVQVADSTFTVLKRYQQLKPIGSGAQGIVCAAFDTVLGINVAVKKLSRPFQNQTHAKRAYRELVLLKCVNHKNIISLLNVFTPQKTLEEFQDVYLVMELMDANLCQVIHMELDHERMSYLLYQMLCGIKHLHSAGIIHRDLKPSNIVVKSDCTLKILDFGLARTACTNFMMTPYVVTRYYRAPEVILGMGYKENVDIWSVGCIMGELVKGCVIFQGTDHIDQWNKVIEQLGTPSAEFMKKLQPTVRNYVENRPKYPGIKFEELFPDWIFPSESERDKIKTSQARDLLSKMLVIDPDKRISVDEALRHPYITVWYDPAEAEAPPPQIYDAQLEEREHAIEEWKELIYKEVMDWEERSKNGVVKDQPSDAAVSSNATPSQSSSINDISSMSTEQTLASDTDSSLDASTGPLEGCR

Consider `Cc1cc(Nc2nc(N[C@@H](C)c3ncc(F)cn3)ncc2Cl)n[nH]1` [AZD-1480], for which the Kd in assay [1], in [2], in assay [3], in [4], in assay [5] and in assay [6] was > 30 µM (inactive) in each case. Further, the Kd (in general, the constant that tells how readily two partners part at equilibrium) was > 30 µM (inactive) on TGF-beta receptor type-1; 0.517 µM (active) in assay [7]; > 30 µM (inactive) in [8]; 0.728 µM (active) in [9]; > 30 µM (inactive) in [10]; > 30 µM (inactive) in assay [11].
In the case of `COc1cc(F)c(F)c(Nc2ccc(I)cc2F)c1NS(=O)(=O)C1(C[C@H](O)CO)CC1` [REFAMETINIB], the Kd in [1], in assay [2], in assay [3], in [4], in assay [5] and in assay [6] was > 30 µM (inactive) each time. Besides, the Kd (on TGF-beta receptor type-1; in assay [7]; in assay [8]; in assay [9]; in assay [10]; in [11]) was > 30 µM (inactive) in each case.
In the case of `FC(F)(F)c1ccc(CNc2ccc(Cc3c[nH]c4ncc(Cl)cc34)cn2)cn1` [PEXIDARTINIB], the Kd in assay [1], in [2], in [3], in [4], in assay [5] and in [6] was > 30 µM (inactive) each time. For the same compound, the Kd (at TGF-beta receptor type-1; in assay [7]; in assay [8]; in assay [9]; in [10]; in assay [11]) was > 30 µM (inactive) in each case.
Regarding `CC1(COc2ccc3c(c2)ncn3-c2ccc3cccc(N4CCC(N)CC4)c3n2)COC1` [CRENOLANIB], the Kd in [1], in assay [2], in assay [3], in assay [4], in assay [5] and in [6] was > 30 µM (inactive) in each case. The Kd is > 30 µM (inactive) at TGF-beta receptor type-1; > 30 µM (inactive) in assay [7]; > 30 µM (inactive) in assay [8]; 3.43 µM (active) in assay [9]; > 30 µM (inactive) in [10]; > 30 µM (inactive) in assay [11].
For `Cc1cc(-c2cc(OC(=O)c3ccccc3)ccc2Cl)cc2nnc(Nc3ccc(OCCN4CCCC4)cc3)nc12` [TG100-801], the Kd in assay [1], in assay [2], in [3], in assay [4], in [5] and in assay [6] was > 30 µM (inactive) each time. Moreover, the Kd (at TGF-beta receptor type-1; in assay [7]; in assay [8]; in assay [9]; in assay [10]; in assay [11]) was > 30 µM (inactive) each time.
`COc1ccc(-c2ccc3ncc4c(c3c2)n(-c2ccc(N3CCNCC3)c(C(F)(F)F)c2)c(=O)n4C)cn1` [BGT-226 FREE BASE]: the Kd in assay [1], in assay [2], in assay [3], in [4], in assay [5] and in assay [6] was > 30 µM (inactive) in each case. Further, the Kd (on TGF-beta receptor type-1; in assay [7]; in [8]; in assay [9]; in assay [10]; in [11]) was > 30 µM (inactive) in each case.
`CNC(=O)c1ccc(Nc2ncc(C(F)(F)F)c(NCc3nccnc3N(C)S(C)(=O)=O)n2)cc1` [DEFACTINIB]: the Kd in [1], in assay [2], in [3], in assay [4], in assay [5] and in assay [6] was > 30 µM (inactive) each time. The Kd is > 30 µM (inactive) on TGF-beta receptor type-1; 1.3 µM (active) in [7]; > 30 µM (inactive) in assay [8]; > 30 µM (inactive) in assay [9]; > 30 µM (inactive) in assay [10]; > 30 µM (inactive) in assay [11].
As for `Cc1cc(C(=O)Nc2cc(Oc3ccc4nc(NC(=O)C5CC5)cn4n3)ccc2C)n(C)n1` [TAK-593], the Kd in assay [1], in assay [2], in assay [3], in [4], in assay [5] and in assay [6] was > 30 µM (inactive) in each case. In addition, the Kd (at TGF-beta receptor type-1; in [7]; in [8]; in [9]; in assay [10]; in assay [11]) was > 30 µM (inactive) in each case.
Regarding `CN1CCN(c2nc(C3=C(c4c[nH]c5ccccc45)C(=O)NC3=O)c3ccccc3n2)CC1` [SOTRASTAURIN], the Kd in assay [1], in assay [2], in [3], in assay [4], in [5] and in assay [6] was > 30 µM (inactive) in each case. For the same compound, the Kd (at TGF-beta receptor type-1; in [7]; in assay [8]; in [9]; in assay [11]) was > 30 µM (inactive) throughout.

The values are drawn from ChEMBL document CHEMBL3991601, “The target landscape of clinical kinase drugs” (Science, 2017).
